Experimental findings from patent US20180201899A1, “IPSC-EC PERFORMANCE ENHANCEMENT VIA SIRT1 OVEREXPRESSION” (Northwestern University, priority 2015, published 2018) are described below.

The test system of the assay is iPSC-ECs. The experiment in a line: Senescence associated β-galactosidase staining. It counts as cell-based. The protocol: Nitric oxide (NO) production was assessed via 4,5-diaminofluorescein.diacetate (DAF 2-DA) assay (Life Technologies). Cell mitogenic effect in response to VEGF (100 ng/ml) was assessed via MTT assay (Sigma-Aldrich) after treating cells in serum-free (starvation) medium, or starvation medium containing 100 ng/ml VEGF for 24 hours. Cell proliferation was determined by counting cell number every seven days after lentiviral transduction using a hemocytometer by excluding dead cells with Trypan blue. […] All results were normalized to cell number via Alamar blue assay (Sigma-Aldrich).Cellular senescence assay kit (Cell Signaling Technology, Danvers, Mass.) was used to stain for senescence associated β-galactosidase (β-gal) in the presence or absence of Ex-527 (10 μM), a SIRT1 inhibitor, and the percentage of β-gal positive cells was quantified with ImageJ. […]
Cellular senescence assay kit (Cell Signaling Technology, Danvers, Mass.) was used to stain for β-galactosidase (β-gal) in the presence or absence of Ex-527 (10 μM), a SIRT1 inhibitor (18), and the percentage of β-gal positive cells was quantified with ImageJ. […] Cell proliferation was determined by counting cell number every seven days after lentiviral transduction using a hemocytometer by excluding dead cells with Trypan blue. […] NO production was assessed via 4,5-diaminofluorescein.diacetate (DAF 2-DA) assay (Life Technologies). […]

For `NC(=O)C1CCCc2c1[nH]c1ccc(Cl)cc21` (centres unmarked) [Ex-527], under “10 μM Ex-527, LV-empty transduced cells, passage 6”, the “β-gal+ (senescent) cells” value turned out to be 56.0±6.2%. For the same molecule, the “effect on percentage of senescent cells” value (10 μM Ex-527, all lentiviral groups) is given as “higher percentage of senescent cells in all groups”.
